Source: article PMC10401651, “Characterization of Uranyl (UO2^2+) Ion Binding to Amyloid Beta (Aβ) Peptides: Effects on Aβ Structure and Aggregation” (ACS Chemical Neuroscience, 2023)
Several values for one entry are separate records, joined by “and”; a condition that tells them apart may be missing. Identical values can stand only once. Like-named read-outs stand apart in the source and are kept apart here.

Assays:
[1] = molecular target: T1, Aβ40 peptide (Homo sapiens, UniProt P05067); assay: Binding affinity via Tyr10 fluorescence quenching, Aβ40; conditions: for Kd: 20 μM Aβ40
T1 construct: namely, the Aβ40 peptide and the Aβ40 (H6A, H13A, and H14A) triple-mutant; purchased AlexoTech AB (Umeå, Sweden); host or cells: recombinant
T1 sequence (P05067 672-711 limits assumed): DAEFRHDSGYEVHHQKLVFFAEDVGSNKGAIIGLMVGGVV
Experimental: Fluorescence measurements were conducted on a Jobin Yvon Horiba Fluorolog 3 fluorescence spectrophotometer (Longjumeau, France) using a quartz cuvette with a 4 mm path length. […] Apparent dissociation constants (KD^App) were determined by fitting the plots to eq 2 [drawing 2] 2 where I0 is the initial fluorescence intensity with no added UO2^2+ ions, I∞ is the steady-state intensity at the end of the titration, [Ab] is the protein concentration, and [U] is the concentration of added UO2^2+ ions.[121],[160]

[2] = molecular target: T2, Aβ40 peptides (Homo sapiens, UniProt P05067); assay: ThT fluorescence measurements of Aβ40 aggregation kinetics; type: biochemical; conditions: for t1/2 (aggregation halftime): 15 h; for ΔThT (increase in ThT fluorescence): 20 μM Aβ40, pH 7.3, 37 °C, end of 15 h
T2 construct: namely, the Aβ40 peptide; purchased AlexoTech AB (Umeå, Sweden); host or cells: recombinant
T2 sequence (P05067 672-711 limits assumed): as above
Experimental: Fitting eq 1 to the ThT fluorescence curves in Figure 1 produced the kinetic parameters Tlag and t1/2 (Table 1). […] The two samples with 0 and 0.04 μM uranyl both have aggregation half-times of around 3 h and lag times of around 2 h under the experimental conditions (Table 1). The aggregation of the 0.2 μM uranyl sample is clearly slower, with a half-time of almost 7 h and a lag time of around 5 h.
Thioflavin T is a benzothiazole dye that increases in fluorescence upon binding to amyloid aggregates[116] and is therefore used to monitor the formation of amyloid aggregates. The ThT dye was excited at 440 nm, and ThT fluorescence emission at 480 nm was measured every 5 min. Before each measurement, the plate was shaken in orbital mode for 140 s at 200 rpm. The samples were incubated for a total of 15 h, and the assay was repeated three times with four replicates of each condition. To determine kinetic aggregation parameters, the data was fitted to eq 1: [drawing 1] 1 Here, F0 and F∞ are the intercepts of the initial and final fluorescence intensity baselines, m0 and m∞ are the slopes of the initial and final baselines, t1/2 is the time needed to reach halfway through the elongation phase (i.e., aggregation half-time), and τ is the elongation time constant.[116]

[3] = molecular target: T2, Aβ40 peptides; assay: Fluorescence measurements of dityrosine cross-link formation; type: biochemical; conditions: 100 μM uranyl acetate, 10 μM Aβ40, 20 mM MES pH 7.3, 24 h, room temperature
Experimental: Two samples of Aβ40 peptides were studied. The control sample contained 100 μM EDTA to remove possible contaminating metal ions that could promote dityrosine formation. […] For both samples, the fluorescence spectra are virtually identical before and after 24 h of incubation (Figure 6). Specifically, no peak around 410 nm, indicative of dityrosine,[129],[130] has emerged.
Fluorescence emission spectra between 330 and 480 nm (excitation at 315 nm) were recorded at room temperature with a Jobin Yvon Horiba Fluorolog 3 fluorescence spectrometer (Longjumeau, France) for two samples of 10 μM Aβ40 peptide in 20 mM MES buffer, pH 7.3. […] The control sample contained 100 μM of the chelator EDTA to remove any free metal ions. All measurements were conducted in triplicate using a quartz cuvette with a 4 mm path length and containing a 0.7 mL liquid sample. Spectra were recorded after 0 and 24 h of incubation, during which the samples were kept at room temperature without agitation or other treatment.

[4] = molecular target: T3, Aβ42 oligomers (Homo sapiens, UniProt P05067); assay: BN-PAGE analysis of SDS-stabilized Aβ42 oligomer formation; type: biochemical
T3 construct: Synthetic lyophilized wt Aβ (1–42) peptides, abbreviated as Aβ42; purchased JPT Peptide Technologies (Germany); host or cells: synthetic peptide
T3 sequence (P05067 672-713 limits assumed): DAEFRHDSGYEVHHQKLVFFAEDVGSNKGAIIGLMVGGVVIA
Experimental: Treatment of Aβ42 peptides with low concentrations (≤7 mM) of SDS, i.e., below the critical micelle concentration for SDS, which is 8.2 mM in water at 25 °C,[152] leads to the formation of stable and homogeneous Aβ42 oligomers of certain sizes and conformations.[131],[132],[153] To prepare such oligomers, size exclusion chromatography (SEC) was initially used to purify synthetic Aβ42 peptides into monomeric form. First, 1 mg of lyophilized Aβ42 powder was dissolved in […] of DMSO. Next, a […] HiTrap desalting column (GE Healthcare, Uppsala) was equilibrated with a 5 mM NaOH solution (pH = 12.3) and washed with a solution of 10–15 mL of 5 mM NaOD, pD = 12.7.[154] The peptide solution in DMSO was applied to the column, followed by an injection of 1.25 mL of 5 mM NaOD. The collection of peptide fractions in 5 mM NaOD on ice was started at a […] flow rate. Ten fractions of 1 mL volumes were collected in 1.5 mL Eppendorf tubes. The absorbance for each fraction at 280 nm was measured with a NanoDrop instrument (Eppendorf, Germany), and peptide concentrations were determined using a molar extinction coefficient of 1280 M^–1 cm^–1 for the single Tyr in Aβ42.[155] The peptide fractions were flash-frozen in liquid nitrogen, covered with argon gas on top in 1.5 mL Eppendorf tubes, and stored at −80 °C until used. SDS-stabilized Aβ42 oligomers of two well-defined sizes (approximately tetramers and dodecamers) were prepared according to a previously published protocol,[131] but in D2O, at a 4-fold lower peptide concentration and without the original dilution step.[132]
Thus, 4–16% Bis–Tris Novex gels (Thermo Fisher Scientific, USA) were loaded with 10 μL samples containing Aβ42 oligomer solutions alongside alongside the Amersham high MW calibration kit for native electrophoresis (GE Healthcare, USA). The gels were run at 4 °C using the electrophoresis system according to the Invitrogen instructions (Thermo Fisher Scientific, USA) and then stained with the Pierce Silver Staining Kit according to the manufacturer’s instructions (Thermo Fisher Scientific, USA). […]

[5] = 0.04 μM uranyl acetate, 20 μM Aβ40, 20 mM MES pH 7.3, 37 °C
[6] = 0.2 μM uranyl acetate, 20 μM Aβ40, 20 mM MES pH 7.3, 37 °C
[7] = 0.2 μM uranyl acetate, 20 μM Aβ40, 20 mM MES pH 7.3, 37 °C, listed as uranyl

CC(=O)[O-].CC(=O)[O-].[O]=[U+2]=[O] [uranyl ions, uranyl acetate]
affinities for binding to Aβ peptides ([1]; general statement of the abstract): micromolar range | Kd ([1]; pH 5.1 + 50 mM SDS, read-out: KD^App, single replicates): 21.8 µM and 21.7 µM and 27.4 µM | Kd ([1]; pH 5.1 + 50 mM SDS, three replicates, read-out: KD^App, average): 23.6 ± 3 µM | Kd ([1]; pH 5.1, 20 mM MES, read-out: KD^App, single replicates): 14 µM and 13.7 µM and 21.3 µM | Kd ([1]; pH 5.1, 20 mM MES, three replicates, read-out: KD^App, average): 16.3 ± 4 µM | Kd ([1]; pH 7.3 + 50 mM SDS, not to be trusted, read-out: KD^App, single replicates): 206 µM and 252 µM and 251 µM | Kd ([1]; pH 7.3 + 50 mM SDS, three replicates, not to be trusted, read-out: KD^App, average): 236 ± 22 µM | Kd ([1]; pH 7.3, 20 mM MES, data deviate from single-site model, not to be trusted, read-out: KD^App, single replicates): 130 µM and 141 µM and 148 µM | Kd ([1]; pH 7.3, 20 mM MES, three replicates, not to be trusted, read-out: KD^App, average): 140 ± 8 µM | Tlag (lag time) [2, 5]: 2.0 ± 1.1 h | t1/2 (aggregation halftime) [2, 5]: around 3 h | Tlag (lag time) ([2]; 0.04 μM uranyl acetate, 20 μM Aβ40, 20 mM MES pH 7.3, 37 °C, listed as uranyl): around 2 h | ΔThT (increase in ThT fluorescence) ([2]; 0.04 μM uranyl acetate): 1286 a.u. | Tlag (lag time) [2, 6]: 5.2 ± 0.9 h | t1/2 (aggregation halftime) [2, 6]: 6.7 ± 1.4 h | t1/2 (aggregation halftime) [2, 7]: ~7 h | Tlag (lag time) [2, 7]: around 5 h | ΔThT (increase in ThT fluorescence) ([2]; 0.2 μM uranyl acetate): 958 a.u. | ΔThT (increase in ThT fluorescence) ([2]; 0.4 μM uranyl acetate): 101 a.u. | lag time, visually estimated ([2]; 0.4 μM uranyl, 20 μM Aβ40, 20 mM MES pH 7.3, 37 °C): approximately 9 h | ΔThT (increase in ThT fluorescence) ([2]; 2 μM uranyl acetate): 0 a.u. | ΔThT (increase in ThT fluorescence) ([2]; 20 μM uranyl acetate): 0 a.u. | Aβ40 aggregation seen in ThT curves ([2]; 2 and 20 μM uranyl, 20 μM Aβ40, 15 h): no obvious signs of aggregation after 15 h | formation of dityrosine cross-links [3]: do not induce the formation of dityrosine cross-links | formation of AβO0.05%SDS oligomers (BN-PAGE) ([4]; 0.05% SDS, 10, 100, 1000 μM uranyl acetate, 80–100 μM Aβ42): no well-defined uniform oligomers were observed | concentration required for full disruption of homogeneous AβO0.05%SDS oligomers ([4]; 0.05% SDS, Aβ42 oligomers): 10 µM | formation of AβO0.2%SDS oligomers (BN-PAGE) ([4]; 0.2% SDS, 10, 100, 1000 μM uranyl, 80–100 μM Aβ42): gradually lower amounts of stable AβO0.2%SDS oligomers
